Assay results reported in patent US20250120399A1, “METHODS AND COMPOSITIONS FOR ALTERING METABOLITES IN VITIS SPP. AND PREVENTING PESTS AND PATHOGENS” (Impello Biosciences, Inc., priority 2022, published 2025).
Where “and” joins values, the source holds several entries; their conditions need not be identical. Identical values can stand only once.

How the values were obtained:
[1] = test system: Grapevine (Malbec variety); assay: Leaf sap Brix by refractometer, Malbec field trial (Example 1); type: in vivo, Vitis vinifera; parameters: % BRIX, Plant #1 / % BRIX, Plant #2 / % BRIX, Plant #3: reference not given here; details: for AVG Brix, Plant #1 / AVG Brix, Plant #2 / AVG Brix, Plant #3: average of 25 leaves; for Brix, individual leaves, Plant #1 / Brix, individual leaves, Plant #2 / Brix, individual leaves, Plant #3: leaf sap; for Brix, individual leaves, Plant #1: MDJ treated Plant #1, leaf no. 1-25; for Brix, individual leaves, Plant #2: MDJ treated Plant #2, leaf no. 1-25; for Brix, individual leaves, Plant #3: MDJ treated Plant #3, leaf no. 1-25
Description: An eliciting composition and methods of use to alter metabolite production were tested on 6 acres of a Malbec variety planted in 1999 in Napa Valley, California. Plants were spaced 5′×10′ (900 vines per acre) and grouped into randomized blocks of 900 vines per group, with six replicates covering three acres for the treatment group, and six replicates covering three acres for the control group. The treatment group received two applications of 32 oz of MDJ applied at a rate of 100 gallons per acre (2.5 mM), once prior to veraison on Aug. 9, 2021 and again when 5-10% of berries were starting to blush (veraison) using a ground spray rig (backpack sprayer). From within each replicate, three plants were selected at random, and 25 leaves from each plant were randomly selected for analysis. The internal sap of the leaves was tested using a refractometer on the days shown below in Table 4 and FIG. 1. Data from each replicate was averaged (25 leaves from each plant, 3 plants).

Malbec wine grape juice = assay: Key metabolites in wine grape juice by HPLC with UV detection (Example 2); type: in vivo, Vitis vinifera
Description: 200 grapes were randomly selected from the MDJ treated group and control group of the study described above in Example 1. Samples were pooled from each group and juice was prepared for winemaking used standard practices. The juice was analyzed for several key metabolites important for wine making (Table 6). All samples were run on Agilent HPLC with UV detection for the compounds listed below. Between 50 μL-100 μL was injected into the machine per sample.

[2] = test system: powdery mildew (Erysiphe necator); assay: Powdery mildew on leaf and fruit under the microscope, 2021 field trial (Example 3); type: in vivo; details: cabernet sauvignon; approx. 5 mM MDJ at 50 gal/acre, four applications
Description: MDJ was applied to fields of grape to investigate the efficacy of MDJ in preventing bunch rot on (Botrytis cinerea) and powdery mildew (Erysiphe necator) on grapes. […] (1 liter) per 50 gallons of water (approximately a 5 mM solution of MDJ). The composition was then applied (at a rate of 50 gallons per acre) to three acres (1245 vines/acre) of a cabernet sauvignon variety grown in Napa Valley, CA. There was a total of four applications between June and September using a ground spray rig. Several leaf and fruit samples were collected to access the presence of powdery mildew under the microscope and compared to leaf and fruit of plants treated with the grower standard.

Aspergillus carbonarius = assay: Sour rot incidence and severity on Kyoho grapes, 2022 field trial (Example 6); type: in vivo; details: for sour rot Incidence per plot (PESINC, clusters) / sour rot severity High (PESSEV, clusters) / sour rot severity Low (PESSEV, clusters) / sour rot severity Medium (PESSEV, clusters): applications ABCD; for sour rot severity High (PESSEV, clusters): high (>51%); for sour rot severity Low (PESSEV, clusters): low (<40% of cluster area infected); for sour rot severity Medium (PESSEV, clusters): medium (41%-50%)
Description: Field trials were conducted in California 2022 (a dry year) to investigate the efficacy of MDJ in preventing Sour Rot caused by Aspergillus carbonarius (also known as summer bunch rot, abbreviated ASPECA in Table 10). Kyoho grapes (Vitis vinifera×Vitis labrusca) were used in this trial. Three vines were used per plot. The plots were arranged in a randomized complete block design with six replicates (plots) per treatment (24 plots total). The plots were sprayed four times (ABCD) at a rate of 500 gal/AC.
Treatments consisted of MDJ at 32 oz and 48 oz/A. A treatment of Regalia® at 1.5 qt/100 gal and Stargus® at 2 qt/100 gal was included for comparative purposes.
Botrytis and powdery mildew were absent for the trial. An evaluation of sour rot was completed before the harvest. The area of an infected cluster was estimated into a percentage and categorized into three levels of severity: low (<40%), medium (41%-50%), and high (>51%). The majority of individual infected clusters had low severity.

[3] = Replicate 5, Oct. 10, 2021, MDJ treated Plant #1
[4] = Replicate 5, Oct. 10, 2021, MDJ treated Plant #2
[5] = Replicate 5, Oct. 10, 2021, MDJ treated Plant #3
[6] = Replicate 6, Oct. 30, 2021, MDJ treated Plant #1
[7] = Replicate 6, Oct. 30, 2021, MDJ treated Plant #2
[8] = Replicate 6, Oct. 30, 2021, MDJ treated Plant #3
[9] = Replicate 4 sampled on Oct. 5, 2021
[10] = Replicate 5 sampled on Oct. 10, 2021
[11] = Replicate 6 sampled on Oct. 30, 2021
[12] = Malbec MDJ treated (2.5 mM, Example 1 trial), pooled 200 grapes

With `CCCCCC1C(=O)CCC1CC(=O)OC` (centres unmarked) [MDJ, methyl dihydrojasmonate] the “% BRIX, Plant #1” value [1, 3] was 111.4%, the “% BRIX, Plant #2” value [1, 4] was 111.4% and the “% BRIX, Plant #3” value [1, 5] was 107.3%. The “% BRIX, Plant #1” value [1, 6] was 99.2%, the “% BRIX, Plant #2” value [1, 7] was 110.1% and the “% BRIX, Plant #3” value [1, 8] was 103.2%. The “AVG Brix, Plant #1” value ([1]; Replicate 4, Oct. 5, 2021, MDJ treated Plant #1) was 29.9, the “AVG Brix, Plant #2” value ([1]; Replicate 4, Oct. 5, 2021, MDJ treated Plant #2) was 29.8 and the “AVG Brix, Plant #3” value ([1]; Replicate 4, Oct. 5, 2021, MDJ treated Plant #3) was 30.2. For the same compound, the “AVG Brix, Plant #1” value [1, 3] was 27.9, the “AVG Brix, Plant #2” value [1, 4] was 27.8 and the “AVG Brix, Plant #3” value [1, 5] was 26.8. The “AVG Brix, Plant #1” value [1, 6] was 24.8, the “AVG Brix, Plant #2” value [1, 7] was 27.5 and the “AVG Brix, Plant #3” value [1, 8] was 25.8. For the same compound, the “Brix, individual leaves, Plant #1” value ([1]; Replicate 4 sampled on Oct. 5, 2021, two applications of 32 oz MDJ at 100 gal/acre (2.5 mM)) was 30.6 and 29.8 (2×) and 29.0 and 29.5 (6×) and 32.3 and 28.7 and 28.9 (3×) and 29.7 (2×) and 28.8 and 30.0 and 30.4 and 33.3 and 29.9 (2×) and 31.8 and 29.6, the “Brix, individual leaves, Plant #2” value [1, 9] was 29.3 (2×) and 28.0 and 26.9 and 28.5 and 29.9 (2×) and 29.8 (3×) and 30.1 and 28.9 (2×) and 29.4 and 28.3 and 33.3 and 33.0 and 32.9 and 32.5 and 28.8 and 30.4 and 29.5 (2×) and 29.6 and 28.7 and the “Brix, individual leaves, Plant #3” value [1, 9] was 31.9 and 29.8 (2×) and 29.2 and 29.3 and 29.9 (4×) and 28.5 and 30.4 and 29.5 (2×) and 31.0 and 32.5 and 32.9 and 29.0 and 28.7 and 28.8 and 30.1 and 30.3 and 29.6 and 33.0 and 32.8 and 28.9. For the same compound, the “Brix, individual leaves, Plant #1” value [1, 10] was 28.7 and 26.1 and 26.2 and 27.2 and 27.7 and 27.6 (2×) and 26.4 (2×) and 28.2 and 28.8 (3×) and 25.8 and 28.5 and 26.0 and 26.9 and 29.5 (2×) and 27.4 and 32.0 and 23.8 and 29.9 and 30.5 and 28.0, the “Brix, individual leaves, Plant #2” value [1, 10] was 28.5 (2×) and 27.5 (2×) and 29.1 and 26.8 and 26.4 and 27.8 and 29.9 and 28.7 (2×) and 29.4 and 28.3 and 29.5 and 28.6 and 25.0 and 27.6 and 25.9 and 29.8 and 28.4 and 28.0 and 26.0 and 26.1 and 27.2 and 27.0 and the “Brix, individual leaves, Plant #3” value [1, 10] was 26.8 (3×) and 24.5 and 26.3 (2×) and 25.5 (3×) and 25.3 and 28.5 (4×) and 26.7 and 25.8 and 27.0 and 28.7 and 26.9 and 29.8 and 27.5 (2×) and 26.0 and 26.5 and 24.8. The “Brix, individual leaves, Plant #1” value [1, 11] was 23.4 and 23.8 (2×) and 24.0 (4×) and 26.0 (2×) and 25.0 (3×) and 25.1 and 26.6 (2×) and 25.6 and 24.5 (2×) and 24.8 (2×) and 24.7 and 23.9 and 22.8 and 25.5 and 26.5, the “Brix, individual leaves, Plant #2” value [1, 11] was 28.7 (2×) and 24.5 and 24.1 and 26.0 (2×) and 28.0 (3×) and 27.1 and 26.4 and 29.1 and 25.5 and 28.5 (2×) and 26.9 and 29.8 (2×) and 29.9 and 27.3 (2×) and 24.9 and 26.6 and 29.5 and 29.0 and the “Brix, individual leaves, Plant #3” value [1, 11] was 25.0 (2×) and 23.1 and 22.9 (2×) and 28.1 and 25.8 and 26.9 and 25.5 and 25.6 (2×) and 26.2 and 23.9 (2×) and 28.8 and 26.3 and 27.2 and 27.3 and 26.1 and 24.6 and 25.7 and 29.9 and 28.4 and 25.4 and 24.9. The “Catechin in wine grape juice” value (Malbec wine grape juice; [12]) was 28 mg/L, the “Polymeric anthocyanins in wine grape juice” value (Malbec wine grape juice; [12]) was 24 mg/L and the “Quercetin glycosides in wine grape juice” value (Malbec wine grape juice; [12]) was 23 mg/L. The “Tannin in wine grape juice” value (Malbec wine grape juice; [12]) was 393 mg/L, the “Total anthocyanins in wine grape juice” value (Malbec wine grape juice; [12]) was 1697 mg/L and the “Increase of total anthocyanins vs control” value (Malbec wine grape juice; Malbec wine grape juice, MDJ treatment group) was “approximately 8%”. For the same compound, the “Color of grape wine juice vs control group” value (Malbec wine grape juice; Malbec, MDJ treatment group, FIG. 2) was “richer, darker red color”, the “Control of powdery mildew vs grower standard” value [2] was “the same, or better, control of powdery mildew as the grower standard” and the “sour rot Incidence per plot (PESINC, clusters)” value (Aspergillus carbonarius; Aug. 17, 2022, 32 oz/a) was 0.8— number. The “sour rot Incidence per plot (PESINC, clusters)” value (Aspergillus carbonarius; Aug. 17, 2022, 48 oz/a) was 1.2— number, the “sour rot severity High (PESSEV, clusters)” value (Aspergillus carbonarius; Aug. 17, 2022, 32 oz/a) was 0.0— number and the “sour rot severity High (PESSEV, clusters)” value (Aspergillus carbonarius; Aug. 17, 2022, 48 oz/a) was 0.0— number. For the same compound, the “sour rot severity Low (PESSEV, clusters)” value (Aspergillus carbonarius; Aug. 17, 2022, 32 oz/a) was 0.8— number, the “sour rot severity Low (PESSEV, clusters)” value (Aspergillus carbonarius; Aug. 17, 2022, 48 oz/a) was 0.8— number and the “Control of sour rot compared to the rest of the treatments” value (Aspergillus carbonarius; lower rate of MDJ Elicitor (32 oz/A)) was “highest efficacy in controlling sour rot”. The “sour rot severity Medium (PESSEV, clusters)” value (Aspergillus carbonarius; Aug. 17, 2022, 32 oz/a) was 0.0— number and the “sour rot severity Medium (PESSEV, clusters)” value (Aspergillus carbonarius; Aug. 17, 2022, 48 oz/a) was 0.3— number.
